Test results published in US9340577B2, “HLA binding motifs and peptides and their uses” (priority 1992, dated 2016).
Like-named read-outs stand apart in the source and are kept apart here. No end group written: not given here.

Assays:
Experiment in all cases: biochemical
Type in all cases: binding
[1] = molecular target: DR1 (DRB1*0101) (Homo sapiens, UniProt P01903+P01911, A100R/D57E/F55L/F60I/F76Y/I96L/L162R/M171V/P40L/Q125E/R42F/V115G/Y59C)
[2] = molecular target: A*3301 (Homo sapiens, UniProt P04439, A270S/D185E/E176V/E277Q/E87N/F33T/G231S/H175R/I121M/I218V/I322F/K168Q/K210R/L300P/L318F/M331R/P217A/Q86R/Q94H/R138Q/T323A/T345S/T97I/V358M/Y195H)
[3] = molecular target: A*6801 (Homo sapiens, UniProt P04439, A269V/D185E/E176V/E277Q/E87N/F33Y/G231S/I121M/I166T/I218V/L180W/L300P/L318F/N151K/P208A/P217A/Q86R/R169H/T345S)
[4] = molecular target: A31 (A*3101) (Homo sapiens, UniProt P04439, A270S/D185E/E176V/E277Q/F33T/G231S/G80R/H175R/I121M/I218V/I322F/K168Q/L300P/L318F/M331R/P217A/Q94H/R138Q/T323A/T345S/T97I/V358M)
[5] = molecular target: HLA-A11 (A*1101) (Homo sapiens, UniProt P04439, A114D/D185E/E176A/F33Y/L180Q/S129P/T187R)
[6] = molecular target: HLA-A3.2 (A*0301) (Homo sapiens, UniProt P04439)

Molecule	IC50 [1]	IC50 ([1]; read-out: DRB1*0101)	IC50 [2]	IC50 [3]	IC50 [4]	IC50 [5]	IC50 [6]
ETELVEPLLPSGAMP [Peptide 9014.0153]	0.335 µM	–	–	–	–	–	–
GTDMKLRLNASPETH [Peptide 9014.0101]	0.225 µM	–	–	–	–	–	–
ETEVVEPLTPSGAMP [Peptide 9014.0146]	0.04 µM	–	–	–	–	–	–
CC(C)[C@H](NC(=O)[C@@H]1CCCN1C(=O)[C@H](CCCCN)NC(=O)[C@H](CO)NC(=O)[C@H](CC(N)=O)NC(=O)[C@H](CC(N)=O)NC(=O)[C@H](CO)NC(=O)[C@H](CO)NC(=O)[C@H](Cc1c[nH]c2ccccc12)NC(=O)[C@H](CO)NC(=O)[C@@H]1CCCN1C(=O)[C@@H](N)CCCCN)C(=O)N[C@@H](CCC(=O)O)C(=O)N[C@@H](CC(=O)O)C(=O)N[C@@H](CCCCN)C(=O)O [Peptide 9014.0042]	0.029 µM	–	–	–	–	–	–
QNFIQNDTGFYTLHV [Peptide 9014.0071]	0.677 µM	–	–	–	–	–	–
ETEIVEPLTPSGAMP [Peptide 9014.0144]	0.481 µM	–	–	–	–	–	–
KWFGSLAFLPESFDGDPA [Peptide 9014.0236]	0.447 µM	–	–	–	–	–	–
ITDFGLARALDIDET [Peptide 9014.0183]	0.025 µM	–	–	–	–	–	–
GTDMKLRLIASPETH [Peptide 9014.0099]	0.018 µM	–	–	–	–	–	–
DMKLRLVASPETHLD [Peptide 9014.0123]	0.028 µM	–	–	–	–	–	–
GTDMKLRLTASPETH [Peptide 9014.0103]	0.045 µM	–	–	–	–	–	–
KEILDEAYLMAGVGS [Peptide 9014.0170]	0.969 µM	–	–	–	–	–	–
GTDMKLRLVASPETH [Peptide 9014.0104]	0.017 µM	–	–	–	–	–	–
NASLLIQNSIQNDTG [Peptide 9014.0015]	0.1 µM	–	–	–	–	–	–
KIFGSLAYLPESFDGDPA [Peptide 9014.0253]	0.636 µM	–	–	–	–	–	–
KLFGSLAFLPESFDGDPA [Peptide 9014.0234]	0.795 µM	–	–	–	–	–	–
824.22 (AAKTAAAFA; also: non-natural residue (46)) [Peptide 824.22]	–	5 µM	–	–	–	–	–
ETELVEPLSPSGAMP [Peptide 9014.0155]	0.117 µM	–	–	–	–	–	–
KVFGSLAFLPESFDGDPA [Peptide 9014.0235]	0.672 µM	–	–	–	–	–	–

Molecule	IC50 [1]	IC50 ([1]; read-out: DRB1*0101)	IC50 [2]	IC50 [3]	IC50 [4]	IC50 [5]	IC50 [6]
DMKLRLIASPETHLD [Peptide 9014.0118]	0.012 µM	–	–	–	–	–	–
KIFGSLAVLPESFDGDPA [Peptide 9014.0251]	0.229 µM	–	–	–	–	–	–
ATMCRHYKR [Peptide 1587.08]	–	–	0.042 µM	0.06 µM	0.01 µM	0.028 µM	0.09 µM
SFFSRTWSR [Peptide 1587.16]	–	–	0.00059 µM	0.0036 µM	0.00029 µM	0.026 µM	1.14 µM
TVHVYFDGNK [Peptide 1589.24]	–	–	> 20 µM	0.097 µM	> 20 µM	0.061 µM	0.707 µM
MLVRFKCAK [Peptide 1587.30]	–	–	0.983 µM	0.864 µM	0.085 µM	0.187 µM	0.151 µM
TVSAELPR [Peptide 1556.22]	–	–	10.1 µM	0.214 µM	11.5 µM	1.88 µM	> 20 µM
NSNAAAFLR [Peptide 88.0387]	–	–	0.05 µM	0.02 µM	0.158 µM	0.213 µM	> 20 µM
TTSAELPK [Peptide 1556.23]	–	–	> 20 µM	1.4 µM	> 20 µM	0.221 µM	19.4 µM
KGLGISYGRKK [Peptide 1577.23]	–	–	> 20 µM	> 20 µM	0.049 µM	6.21 µM	0.023 µM
VVVKSPNHVK [Peptide 9012.0255]	–	–	> 20 µM	0.32 µM	7.7 µM	0.088 µM	0.256 µM
FADLTVVYR [Peptide 78.0318]	–	–	0.31 µM	0.039 µM	1.78 µM	9.02 µM	19.2 µM
KLGIVTITY [Peptide 88.0428]	–	–	> 20 µM	> 20 µM	> 20 µM	3.43 µM	0.065 µM
ITYSDETQR [Peptide 88.0429]	–	–	1.35 µM	0.026 µM	0.879 µM	0.165 µM	2.96 µM
KLFLKGVPK [Peptide 1587.41]	–	–	9.68 µM	> 20 µM	0.0015 µM	0.017 µM	0.016 µM
LLRAVRIIK [Peptide 9017.0069]	–	–	> 20 µM	> 20 µM	2.64 µM	2.03 µM	0.069 µM
KQEAVRHFPR [Peptide 9017.0239]	–	–	0.575 µM	6.74 µM	0.0099 µM	0.394 µM	9.26 µM
FIHFRIGCR [Peptide 9017.0112]	–	–	0.013 µM	0.067 µM	0.061 µM	7.12 µM	1.01 µM
